# ± gives the expanded uncertainty stated by the source.
# Assays:
# [1] = Crystal; DTA
# [2] = Molar enthalpy of transition or fusion; details: Crystal; DSC
SMILES,Normal melting temperature [1] [°C],Molar enthalpy of transition or fusion [2] [kcal/mol]
CCCCCCCCCCCCCCCC(=O)O [hexadecanoic acid],62.00 ± 0.53,12.6 ± 0.55
CCCCCCCCCCCCCC(=O)O [tetradecanoic acid],54.00 ± 0.53,10.7 ± 0.478
CCCCCCCCCCCCCCCCCC [octadecane],27.80 ± 0.53,14.7 ± 0.645

# From the NIST ThermoML archive (doi:10.1016/j.jct.2016.05.008)
